Source: ChEMBL document CHEMBL2331419, “Benzimidazole-carboxamides as potent and bioavailable stearoyl-CoA desaturase (SCD1) inhibitors from ligand-based virtual screening and chemical optimization” (Bioorg Med Chem Lett, 2013)
One block for each compound: values may come before it.

What was measured:
Acyl-CoA desaturase 1 [1] = molecular target: T1, Acyl-CoA desaturase 1 (Rattus norvegicus, UniProt P07308); assay: Inhibition of SCD1 in Wistar rat liver microsomes using [14C] stearic acid as substrate incubated for 10 mins prior to substrate addition measured after 1 hr by chromatographic analysis; set-up: species or system Microsome
T1 sequence (P07308 whole entry): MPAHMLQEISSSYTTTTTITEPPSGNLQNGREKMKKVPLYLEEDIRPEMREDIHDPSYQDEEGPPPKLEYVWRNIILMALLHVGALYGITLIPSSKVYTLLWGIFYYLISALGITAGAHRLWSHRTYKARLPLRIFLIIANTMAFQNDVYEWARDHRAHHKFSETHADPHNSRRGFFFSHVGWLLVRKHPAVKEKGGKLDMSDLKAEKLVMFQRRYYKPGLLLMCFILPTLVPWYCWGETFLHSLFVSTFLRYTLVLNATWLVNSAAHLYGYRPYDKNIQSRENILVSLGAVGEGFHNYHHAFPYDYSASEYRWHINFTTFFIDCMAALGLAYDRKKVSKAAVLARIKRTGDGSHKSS

Stearoyl-CoA desaturase = molecular target: T2, Stearoyl-CoA desaturase (Homo sapiens, UniProt O00767); assay: Inhibition of SCD1 in human HepG2 cells; assay type: cell-based
T2 sequence (O00767 whole entry): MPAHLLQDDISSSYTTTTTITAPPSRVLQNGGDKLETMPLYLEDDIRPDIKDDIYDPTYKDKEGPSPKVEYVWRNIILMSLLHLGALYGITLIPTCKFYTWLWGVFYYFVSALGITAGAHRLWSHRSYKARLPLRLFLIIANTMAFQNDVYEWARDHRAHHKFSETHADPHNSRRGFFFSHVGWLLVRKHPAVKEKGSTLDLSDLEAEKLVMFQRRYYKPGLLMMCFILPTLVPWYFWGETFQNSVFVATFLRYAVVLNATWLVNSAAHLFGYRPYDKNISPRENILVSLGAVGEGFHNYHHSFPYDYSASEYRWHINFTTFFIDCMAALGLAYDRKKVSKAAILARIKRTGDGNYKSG

[2] = Drug metabolism in human in presence of quinidine; assay type: ADME, organism-based; settings: in vivo, with quinidine, read-out: Drug metabolism
[3] = Drug metabolism in human in presence of ketoconazole; assay type: ADME, organism-based; settings: in vivo, with ketoconazole, read-out: Drug metabolism
[4] = Drug metabolism in mouse; assay type: ADME, organism-based; settings: in vivo, read-out: Drug metabolism
[5] = Drug metabolism in human; assay type: ADME, organism-based; settings: in vivo, read-out: Drug metabolism
[6] = Drug metabolism in rat; assay type: ADME, organism-based; settings: in vivo, read-out: Drug metabolism
[7] = Permeability across human Caco2 cells; assay type: ADME, cell-based; settings: Caco-2, read-out: permeability
Acyl-CoA desaturase 1 [8] = molecular target: T1, Acyl-CoA desaturase 1; assay: Inhibition of SCD1 in rat H42E cells; assay type: cell-based
[9] = Lipophilicity, log D of the compound at pH 7.4; assay type: physicochemical; settings: buffer
HepG2 = assay: Inhibition of ACC phosphorylation in human HepG2 cells at 10 uM by Western blotting analysis relative to control; assay type: cell-based
Rattus norvegicus [10] = assay: In vivo inhibition of SCD1 in Zucker diabetic fatty rat assessed as decrease in serum fatty acid desaturation index at 30 mg/kg, po after 6 hrs relative to vehicle-treated control; assay type: functional
[11] = Oral bioavailability in Zucker diabetic fatty rat at 30 mg/kg; assay type: ADME, organism-based; settings: in vivo
[12] = Apparent half life in Zucker diabetic fatty rat at 30 mg/kg, po; assay type: ADME, organism-based; set-up: dose 30 mg/kg, route oral; settings: in vivo, read-out: t1/2(app) (converted)
[13] = Cmax in Zucker diabetic fatty rat at 30 mg/kg, po after 4 hrs; assay type: ADME, organism-based; set-up: dose 30 mg/kg, route oral; settings: in vivo
Rattus norvegicus [14] = assay: Volume of distribution at steady state in Zucker diabetic fatty rat at 5 mg/kg, iv; assay type: ADME, organism-based; set-up: dose 5 mg/kg, route intravenous; settings: in vivo
[15] = Half life in Zucker diabetic fatty rat at 5 mg/kg, iv; assay type: ADME, organism-based; set-up: dose 5 mg/kg, route intravenous; settings: in vivo
[16] = Plasma clearance in Zucker diabetic fatty rat at 5 mg/kg, iv; assay type: ADME, organism-based; set-up: dose 5 mg/kg, route intravenous

IC50 (Acyl-CoA desaturase 1 [1]): 21.6 µM
Structure (SMILES): CC(C)CCNC(=O)c1ccc2nc(-c3ccc(Oc4ccccc4)cc3)[nH]c2c1

IC50 (Acyl-CoA desaturase 1 [1]): 24.9 µM
Structure (SMILES): O=C(NCCC1CC1)c1ccc2nc(-c3ccc(Oc4ccccc4)cc3)[nH]c2c1

IC50 (Acyl-CoA desaturase 1 [1]): > 100 µM
Structure (SMILES): O=C(c1ccccc1)c1ccc2nc(-c3ccc(-c4ccccc4)cc3)[nH]c2c1

IC50 (Acyl-CoA desaturase 1 [1]): 27.2 µM
Structure (SMILES): CNC(=O)c1ccc2nc(-c3ccc(Oc4ccccc4C(F)(F)F)cc3)[nH]c2c1

IC50 (Acyl-CoA desaturase 1 [1]): 7.81 µM
Structure (SMILES): O=C(NCc1ccccc1)c1ccc2nc(-c3ccc(Oc4ccccc4)cc3)[nH]c2c1

IC50 (Acyl-CoA desaturase 1 [1]): 11.8 µM
Structure (SMILES): O=C(NCc1cccc(C(F)(F)F)c1)c1ccc2[nH]c(-c3ccc(Oc4ccccc4)cc3)nc2c1

IC50 (Acyl-CoA desaturase 1 [1]): 0.099 µM
Structure (SMILES): O=C(NCc1cccs1)c1ccc2nc(-c3ccc(C(=O)c4ccccc4C(F)(F)F)cc3)[nH]c2c1

IC50 (Acyl-CoA desaturase 1 [1]): 5 µM
Structure (SMILES): CCn1c(COCc2ccccc2)nc2cc(C(=O)NCCc3ccc(O)cc3)ccc21

IC50 (Stearoyl-CoA desaturase): 2340 nM
metabolised [2]: 58%
metabolised [3]: 45%
metabolised [4]: 49%
metabolised [5]: 62%
metabolised [6]: 38%
Papp [7]: 16.7 ×10⁻⁶ cm/s
IC50 (Acyl-CoA desaturase 1 [1]): 0.966 µM
Structure (SMILES): O=C(NCCC1CC1)c1ccc2nc(-c3ccc(Oc4ccccc4Cl)cc3)[nH]c2c1

IC50 (Acyl-CoA desaturase 1 [8]): 305 nM
IC50 (Stearoyl-CoA desaturase): 1160 nM
logD [9]: 2.24
metabolised [2]: 40%
metabolised [3]: 16%
metabolised [4]: 23%
metabolised [5]: 45%
metabolised [6]: 38%
Papp [7]: 6.36 ×10⁻⁶ cm/s
IC50 (Acyl-CoA desaturase 1 [1]): 0.115 µM
Structure (SMILES): O=C(NCc1nccs1)c1ccc2nc(-c3ccc(Oc4ccccc4Cl)cc3)[nH]c2c1

IC50 (Stearoyl-CoA desaturase): 439 nM
IC50 (Acyl-CoA desaturase 1 [1]): 0.142 µM
Structure (SMILES): O=C(NCc1ccc(Cl)s1)c1ccc2nc(-c3ccc(Oc4ccccc4C(F)(F)F)cc3)[nH]c2c1

IC50 (Acyl-CoA desaturase 1 [1]): 3.2 µM
Structure (SMILES): O=C(Cc1cccs1)Nc1ccc2nc(N3CCN(C(=O)c4ccccc4C(F)(F)F)CC3)[nH]c2c1

IC50 (Acyl-CoA desaturase 1 [1]): 2.21 µM
Structure (SMILES): O=C(NCc1ccc(Cl)s1)c1cccc(-c2nc3cc(Oc4ccccc4C(F)(F)F)ccc3[nH]2)c1

IC50 (Acyl-CoA desaturase 1 [1]): 28.3 µM
Structure (SMILES): O=C(NCCCc1ccccc1)c1ccc2nc(-c3ccc(Oc4ccccc4)cc3)[nH]c2c1

IC50 (Acyl-CoA desaturase 1 [1]): 2.72 µM
Structure (SMILES): CC(C)CCNC(=O)c1ccc2[nH]c(-c3ccc(Oc4ccccc4Cl)cc3)nc2c1

IC50 (Acyl-CoA desaturase 1 [1]): 16.6 µM
Structure (SMILES): O=C(NCC1CC1)c1ccc2[nH]c(-c3ccc(Oc4ccccc4)cc3)nc2c1

Structure (SMILES): O=C(NCCC1CC1)c1ccc2[nH]c(-c3ccc(Oc4ccccc4Cl)cc3)nc2c1
inhibition (HepG2): 140%

IC50 (Acyl-CoA desaturase 1 [1]): 15.8 µM
Structure (SMILES): O=C(c1ccccc1)c1ccc2nc(-c3ccc(Oc4ccccc4)cc3)[nH]c2c1

IC50 (Acyl-CoA desaturase 1 [1]): > 100 µM
Structure (SMILES): O=C(NCCCc1ccccc1)c1ccc2nc(-c3ccc(Oc4ccccc4C(F)(F)F)cc3)[nH]c2c1

IC50 (Acyl-CoA desaturase 1 [1]): 6.51 µM
Structure (SMILES): O=C(NCc1nccs1)c1ccc2nc(-c3ccc(Oc4ccccc4)cc3)[nH]c2c1

IC50 (Acyl-CoA desaturase 1 [1]): 3.7 µM
Structure (SMILES): O=C(NCc1ccc(Cl)s1)c1ccc2[nH]c(-c3ccc(Oc4ccccc4)cc3)nc2c1

IC50 (Acyl-CoA desaturase 1 [8]): 14 nM
IC50 (Stearoyl-CoA desaturase): 295 nM
metabolised [2]: 60%
metabolised [3]: 46%
metabolised [5]: 71%
metabolised [6]: 20%
Papp [7]: 18.2 ×10⁻⁶ cm/s
IC50 (Acyl-CoA desaturase 1 [1]): 0.082 µM
Structure (SMILES): OC(c1ccc2[nH]c(-c3ccc(OCc4ccccc4)cc3)nc2c1)c1ccccc1C(F)(F)F (racemic)

IC50 (Acyl-CoA desaturase 1 [1]): 1.3 µM
Structure (SMILES): O=C(NCc1nccs1)c1cccc(-c2nc3cc(Oc4ccccc4C(F)(F)F)ccc3[nH]2)c1

IC50 (Stearoyl-CoA desaturase): 1360 nM
metabolised [2]: 62%
metabolised [3]: 41%
metabolised [4]: 36%
metabolised [5]: 64%
metabolised [6]: 31%
Papp [7]: 11.4 ×10⁻⁶ cm/s
IC50 (Acyl-CoA desaturase 1 [1]): 0.832 µM
Structure (SMILES): O=C(NCc1ccc(Cl)s1)c1ccc2nc(-c3ccc(Oc4ccccc4Cl)cc3)[nH]c2c1

IC50 (Acyl-CoA desaturase 1 [1]): 4.52 µM
Structure (SMILES): O=C(Nc1nccs1)c1ccc2nc(-c3ccc(C(=O)c4ccccc4C(F)(F)F)cc3)[nH]c2c1

IC50 (Stearoyl-CoA desaturase): 313 nM
IC50 (Acyl-CoA desaturase 1 [1]): 0.212 µM
Structure (SMILES): O=C(NCc1nccs1)c1ccc2[nH]c(-c3ccc(Oc4ccccc4C(F)(F)F)cc3)nc2c1

IC50 (Acyl-CoA desaturase 1 [1]): 3.86 µM
Structure (SMILES): CC(C)CCNC(=O)c1ccc2nc(-c3ccc(C(=O)c4ccccc4C(F)(F)F)cc3)[nH]c2c1

IC50 (Acyl-CoA desaturase 1 [1]): 13.3 µM
Structure (SMILES): O=C(c1ccc2nc(-c3ccc(OCc4ccccc4)cc3)[nH]c2c1)c1ccccc1C(F)(F)F

IC50 (Acyl-CoA desaturase 1 [1]): 38.3 µM
Structure (SMILES): CCOC(=O)c1ccc2[nH]c(-c3ccc(Oc4ccccc4C(F)(F)F)cc3)nc2c1

IC50 (Acyl-CoA desaturase 1 [1]): 0.434 µM
Structure (SMILES): CC(C)CCNC(=O)c1ccc2nc(-c3ccc(Oc4ccccc4C(F)(F)F)cc3)[nH]c2c1

bioavailability [11]: 25%
half-life [12]: 504 min
Cmax [13]: 1950 ng/mL
Vdss (Rattus norvegicus [14]): 1.7 L/kg
half-life [15]: 390 min
IC50 (Acyl-CoA desaturase 1 [8]): 182 nM
IC50 (Stearoyl-CoA desaturase): 157 nM
logD [9]: 3.94
metabolised [2]: 40%
metabolised [3]: 10%
metabolised [5]: 45%
metabolised [6]: 40%
Papp [7]: 5.26 ×10⁻⁶ cm/s
clearance [16]: 4.17 mL/min/kg
IC50 (Acyl-CoA desaturase 1 [1]): 0.136 µM
Structure (SMILES): O=C(NCc1ccc(Cl)s1)c1ccc2[nH]c(-c3ccc(C(=O)c4ccccc4C(F)(F)F)cc3)nc2c1
inhibition in vivo at 30 mg/kg (Rattus norvegicus [10]): 84.4%

IC50 (Acyl-CoA desaturase 1 [1]): > 100 µM
Structure (SMILES): O=C(c1ccccc1)c1ccc2nc(-c3ccc(C(=O)c4ccccc4C(F)(F)F)cc3)[nH]c2c1

IC50 (Acyl-CoA desaturase 1 [8]): 104 nM
IC50 (Stearoyl-CoA desaturase): 179 nM
IC50 (Acyl-CoA desaturase 1 [1]): 0.078 µM
Structure (SMILES): O=C(NCc1nccs1)c1ccc2[nH]c(-c3ccc(C(=O)c4ccccc4C(F)(F)F)cc3)nc2c1

IC50 (Acyl-CoA desaturase 1 [1]): 0.539 µM
Structure (SMILES): O=C(NCCC1CC1)c1ccc2nc(-c3ccc(Oc4ccccc4C(F)(F)F)cc3)[nH]c2c1

logD [9]: 3.68
IC50 (Acyl-CoA desaturase 1 [1]): 3.76 µM
Structure (SMILES): O=C(NCc1cccs1)c1ccc2nc(-c3ccc(Oc4ccccc4)cc3)[nH]c2c1

IC50 (Acyl-CoA desaturase 1 [1]): 2.26 µM
Structure (SMILES): O=C(CCc1ccccc1)Nc1ccc(N2CCN(C(=O)c3ccccc3C(F)(F)F)CC2)nc1
